The values that follow are results of earlier work, collected in patent US10752566B2, “Solvent compositions for use as replacements for slow evaporating solvents” (TBF ENVIRONMENTAL TECHNOLOGY INC., priority 2015, dated 2020).

The conditions of this data set: PCBTF.

For `FC(F)(F)c1ccc(Cl)cc1` [PCBTF, para-Chlorobenzotrifluoride], the specific gravity was 1.34.
